These are literature values, as cited in article PMC11472320, “Computationally Driven Discovery of a BCR-ABL1 Kinase Inhibitor with Activity in Multidrug-Resistant Chronic Myeloid Leukemia” (Journal of Medicinal Chemistry, 2024).

Like-named read-outs stand apart in the source and are kept apart here.

One data set relates to MDCKII-MDR1 cells. As to conditions: cited from earlier work.
For data set [1] the following is noted: pH 7.4; cited from earlier work.
The conditions of data set [2]: pH 7.4; cited from earlier work. This is another data set of the same source.
For data set [3] the following is noted: cited from earlier work.
Details of data set [4]: method as in earlier work. As to conditions: human plasma; cited from earlier work.
For the next data set, the system named is P-glycoprotein (P-gp). The note with it: Figure 1A; cited from earlier work.

With `COc1cc(Nc2c(C#N)cnc3cc(OCCCN4CCN(C)CC4)c(OC)cc23)c(Cl)cc1Cl` [Bosutinib, bosutinib], in the data set with MDCKII-MDR1 cells (Table S7), the “Papp(a-b)” value was 0.38 10-6 cm/s. Besides, the “Recovery% (AP-BL)” value in the data set with MDCKII-MDR1 cells (Table S7) is given as 56.02%. Also, the “Recovery% (BL-AP)” value in the data set on MDCKII-MDR1 cells (Table S7) is 65.52%. For the same molecule, the “MDCKII-MDR1 Papp (a-b)” value in the data set on MDCKII-MDR1 cells (a-b) is 0.4 ×10⁻⁶ cm/s. The P-gp efflux status result with MDCKII-MDR1 cells and in the data set on P-glycoprotein (P-gp) was “P-gp Substrate” in each case. In data set [1], the logD7.4 is 3.1. Moreover, the “Aq. Sol.” value in data set [2] is 14 µM. In addition, the “Remaining Percentages” value in data set [3] (0.5 min) is 100.00%; in data set [3] (15 min) it was 73.99%; in data set [3] (60 min), 53.95%; in data set [3] (90 min) it was 34.15%; in data set [3] (120 min), 20.73%. For the same molecule, the “%Recovery” value in data set [4] is 94.01%. The “%Unbound” value in data set [4] is reported as 4.52%.
